{
  "source": "paper PMC11222350",
  "about": "“Preclinical evaluation of [^18F]FP-CIT, the radiotracer targeting dopamine transporter for diagnosing Parkinson’s disease: pharmacokinetic and efficacy analysis” (EJNMMI Research, 2024)",
  "experiment": "Biodistribution and pharmacokinetic constants of [^18F]FP-CIT in normal mice",
  "type": "in vivo, C57BL/6 mice",
  "conditions": "for AUC / CL / Cmax / T1/2 / Tmax: normal mice (group I), 3.7 MBq i.v.",
  "method": "Male C57BL/6 mice (group I) were anesthetized with 2% isoflurane in oxygen, and 3.7 MBq of [^18F]FP-CIT was intravenously injected via the tail vein. Mice were sacrificed at different time points (1, 5, 10, 30, 60, and 120 min after injection, n = 4 each), and the tissues of interest (blood, muscle, heart, lung, liver, spleen, stomach, intestine, kidney, bone, cerebellum, striatum, and remaining brain tissues) were harvested, weighed, and measured for radioactivity using a gamma counter (Wizard 1480; PerkinElmer, Waltham, MA, USA). The uptake in each tissue sample was expressed as a percentage of the injected dose per gram (%ID/g). The pharmacokinetic constants of [^18F]FP-CIT in normal C57BL/6 mice were calculated from the %ID/g results of its biodistribution.",
  "key": {"[1]": {"conditions": "1 min post-injection (highest uptake), normal mice"}},
  "data": [
    {"smiles": "COC(=O)[C@H]1[C@@H](c2ccc(I)cc2)C[C@@H]2CC[C@H]1N2CCCF", "note": "[[^18F]FP-CIT, N-(3-fluoropropyl)-2β-carboxymethoxy-3β-(4-iodophenyl) nortropane]", "values": [
      {"measurement": "uptake in cerebellum", "setting": "[1]", "value": "21.42 ± 12.19", "unit": "%ID/g"},
      {"measurement": "uptake in striatum", "setting": "[1]", "value": "23.50 ± 12.46", "unit": "%ID/g"},
      {"measurement": "uptake in the rest of the brain", "setting": "[1]", "value": "20.06 ± 12.12", "unit": "%ID/g"},
      {"measurement": "uptake in the liver", "setting": "60 min after injection (highest uptake), normal mice", "value": "30.82 ± 1.64", "unit": "%ID/g"},
      {"measurement": "AUC", "setting": "blood", "value": "95.43 ± 4.34", "unit": "%ID*min/g"},
      {"measurement": "CL", "setting": "blood", "value": "1.05 ± 0.05", "unit": "cc/min"},
      {"measurement": "Cmax", "setting": "blood", "value": "2.68 ± 0.12", "unit": "%ID/g"},
      {"measurement": "T1/2", "setting": "blood", "value": "11.12 ± 1.83", "unit": "min"},
      {"measurement": "Tmax", "setting": "blood", "value": "1.00 ± 0.00", "unit": "min"},
      {"measurement": "AUC", "setting": "bone", "value": "636.73 ± 25.74", "unit": "%ID*min/g"},
      {"measurement": "CL", "setting": "bone", "value": "0.16 ± 0.01", "unit": "cc/min"},
      {"measurement": "Cmax", "setting": "bone", "value": "9.55 ± 1.48", "unit": "%ID/g"},
      {"measurement": "T1/2", "setting": "bone", "value": "114.55 ± 23.62", "unit": "min"},
      {"measurement": "Tmax", "setting": "bone", "value": "120.00 ± 0.00", "unit": "min"},
      {"measurement": "time of maximum concentration", "setting": "brain, normal mice", "value": 1, "unit": "min"},
      {"measurement": "AUC", "setting": "cerebellum", "value": "174.48 ± 20.00", "unit": "%ID*min/g"},
      {"measurement": "CL", "setting": "cerebellum", "value": "0.58 ± 0.07", "unit": "cc/min"},
      {"measurement": "Cmax", "setting": "cerebellum", "value": "10.97 ± 9.59", "unit": "%ID/g"},
      {"measurement": "T1/2", "setting": "cerebellum", "value": "17.30 ± 17.89", "unit": "min"},
      {"measurement": "Tmax", "setting": "cerebellum", "value": "1.00 ± 0.00", "unit": "min"},
      {"measurement": "AUC", "setting": "heart", "value": "180.65 ± 13.75", "unit": "%ID*min/g"},
      {"measurement": "CL", "setting": "heart", "value": "0.56 ± 0.04", "unit": "cc/min"},
      {"measurement": "Cmax", "setting": "heart", "value": "7.71 ± 0.74", "unit": "%ID/g"},
      {"measurement": "T1/2", "setting": "heart", "value": "62.29 ± 4.86", "unit": "min"},
      {"measurement": "Tmax", "setting": "heart", "value": "1.00 ± 0.00", "unit": "min"},
      {"measurement": "AUC", "setting": "intestine", "value": "614.35 ± 28.65", "unit": "%ID*min/g"},
      {"measurement": "CL", "setting": "intestine", "value": "0.16 ± 0.01", "unit": "cc/min"},
      {"measurement": "Cmax", "setting": "intestine", "value": "6.00 ± 0.47", "unit": "%ID/g"},
      {"measurement": "T1/2", "setting": "intestine", "value": "497.98 ± 350.19", "unit": "min"},
      {"measurement": "Tmax", "setting": "intestine", "value": "19.00 ± 27.58", "unit": "min"},
      {"measurement": "AUC", "setting": "kidney", "value": "680.50 ± 45.28", "unit": "%ID*min/g"},
      {"measurement": "CL", "setting": "kidney", "value": "0.15 ± 0.01", "unit": "cc/min"},
      {"measurement": "Cmax", "setting": "kidney", "value": "31.96 ± 5.10", "unit": "%ID/g"},
      {"measurement": "T1/2", "setting": "kidney", "value": "89.82 ± 11.39", "unit": "min"},
      {"measurement": "Tmax", "setting": "kidney", "value": "1.00 ± 0.00", "unit": "min"},
      {"measurement": "AUC", "setting": "liver", "value": "3095.50 ± 181.39", "unit": "%ID*min/g"},
      {"measurement": "CL", "setting": "liver", "value": "0.03 ± 0.00", "unit": "cc/min"},
      {"measurement": "T1/2", "setting": "liver", "value": "26.50 ± 4.4", "unit": "min"},
      {"measurement": "Tmax", "setting": "liver", "value": "4.00 ± 2.00", "unit": "min"},
      {"measurement": "AUC", "setting": "lung", "value": "408.70 ± 65.06", "unit": "%ID*min/g"},
      {"measurement": "CL", "setting": "lung", "value": "0.25 ± 0.04", "unit": "cc/min"},
      {"measurement": "Cmax", "setting": "lung", "value": "21.31 ± 3.18", "unit": "%ID/g"},
      {"measurement": "T1/2", "setting": "lung", "value": "79.46 ± 10.66", "unit": "min"},
      {"measurement": "Tmax", "setting": "lung", "value": "1.00 ± 0.00", "unit": "min"},
      {"measurement": "uptake in the intestine", "setting": "maintained for 120 min after injection, normal mice", "value": "approximately 5 %ID/g"},
      {"measurement": "AUC", "setting": "muscle", "value": "150.08 ± 13.03", "unit": "%ID*min/g"},
      {"measurement": "CL", "setting": "muscle", "value": "0.67 ± 0.06", "unit": "cc/min"},
      {"measurement": "Cmax", "setting": "muscle", "value": "2.42 ± 0.98", "unit": "%ID/g"},
      {"measurement": "T1/2", "setting": "muscle", "value": "137.84 ± 198.01", "unit": "min"},
      {"measurement": "Tmax", "setting": "muscle", "value": "5.00 ± 0.00", "unit": "min"},
      {"measurement": "AUC", "setting": "rest of the brain", "value": "244.03 ± 34.63", "unit": "%ID*min/g"},
      {"measurement": "CL", "setting": "rest of the brain", "value": "0.42 ± 0.06", "unit": "cc/min"},
      {"measurement": "Cmax", "setting": "rest of the brain", "value": "17.19 ± 16.17", "unit": "%ID/g"},
      {"measurement": "T1/2", "setting": "rest of the brain", "value": "55.64 ± 29.71", "unit": "min"},
      {"measurement": "Tmax", "setting": "rest of the brain", "value": "1.00 ± 0.00", "unit": "min"},
      {"measurement": "AUC", "setting": "spleen", "value": "288.90 ± 39.35", "unit": "%ID*min/g"},
      {"measurement": "CL", "setting": "spleen", "value": "0.35 ± 0.05", "unit": "cc/min"},
      {"measurement": "Cmax", "setting": "spleen", "value": "14.52 ± 1.35", "unit": "%ID/g"},
      {"measurement": "T1/2", "setting": "spleen", "value": "81.36 ± 16.91", "unit": "min"},
      {"measurement": "Tmax", "setting": "spleen", "value": "3.00 ± 2.31", "unit": "min"},
      {"measurement": "AUC", "setting": "stomach", "value": "444.70 ± 47.17", "unit": "%ID*min/g"},
      {"measurement": "CL", "setting": "stomach", "value": "0.23 ± 0.02", "unit": "cc/min"},
      {"measurement": "Cmax", "setting": "stomach", "value": "7.14 ± 1.99", "unit": "%ID/g"},
      {"measurement": "T1/2", "setting": "stomach", "value": "177.39 ± 36.93", "unit": "min"},
      {"measurement": "Tmax", "setting": "stomach", "value": "7.50 ± 2.89", "unit": "min"},
      {"measurement": "AUC", "setting": "striatum", "value": "223.30 ± 37.82", "unit": "%ID*min/g"},
      {"measurement": "CL", "setting": "striatum", "value": "0.46 ± 0.08", "unit": "cc/min"},
      {"measurement": "T1/2", "setting": "striatum", "value": "39.62 ± 18.71", "unit": "min"},
      {"measurement": "Tmax", "setting": "striatum", "value": "1.00 ± 0.00", "unit": "min"}
    ]}
  ]
}
